Tests used:
[1] = tested on: MDA-MB-231; assay: Antiproliferative activity against human MDA-MB-231 cells incubated for 48 hrs by CCK8 assay; format: functional, cell-based; details: MDA-MB-231, 48 h
[2] = tested on: RKO; assay: Antiproliferative activity against human RKO cells incubated for 48 hrs by CCK8 assay; format: functional, cell-based
[3] = target: Prostaglandin G/H synthase 2 (Mus musculus, UniProt Q05769, V509I); assay: Inhibition of mouse COX2 V523I mutant
[4] = tested on: HCT-116; assay: Antiproliferative activity against human HCT116 cells incubated for 48 hrs by CCK8 assay; format: functional, cell-based; details: HCT-116, 48 h
[5] = tested on: IMR-5; assay: Antiproliferative activity against human IMR5 cells incubated for 48 hrs by CCK8 assay; format: functional, cell-based; details: IMR-5, 48 h
[6] = target: Prostaglandin G/H synthase 2 (Mus musculus, UniProt Q05769, S516A); assay: Inhibition of mouse COX2 S530A mutant
[7] = target: Prostaglandin G/H synthase 2 (Mus musculus, UniProt Q05769); assay: Inhibition of mouse COX2
[8] = tested on: NCI-H292; assay: Antiproliferative activity against human NCI-H292 cells incubated for 48 hrs by CCK8 assay; format: functional, cell-based; details: NCI-H292, 48 h
[9] = target: Prostaglandin G/H synthase 2 (Mus musculus, UniProt Q05769, R106Q); assay: Inhibition of mouse COX2 R120Q mutant
[10] = tested on: RAW264.7; assay: Antiproliferative activity against mouse RAW264.7 cells incubated for 48 hrs by CCK8 assay; format: functional, cell-based; details: RAW264.7, 48 h
[11] = Antitumor activity against human HNSCC-1483 cells xenografted in mouse assessed as reduction in tumor growth at 2 mg/kg administered for 14 days and measured on day 2 to day 15 by electronic caliper method relative to control; format: functional; details: MDA-1483, 336 h, time 14 day, read-out: TGI
[12] = Antiproliferative activity against human HCA7 cells incubated for 48 hrs by CCK8 assay; format: functional, cell-based; details: HCA-7, 48 h
[13] = Cytotoxicity against human MUM-2B cells incubated for 72 hrs by CCK8 assay; format: functional, cell-based
[14] = Cytotoxicity against human C918 cells incubated for 72 hrs by CCK8 assay; format: functional, cell-based; details: C918, 72 h
[15] = Potency index, ratio of etoposide IC50 to test compound IC50 for antiproliferative activity against human MUM-2B cells; format: functional
[16] = Potency index, ratio of etoposide IC50 to test compound IC50 for antiproliferative activity against human C918 cells; format: functional
[17] = tested on: K562/VCR; assay: Antiproliferative activity against human K562/VCR cells incubated for 72 hrs by CCK8 method; format: functional, cell-based
[18] = tested on: K562/VCR; assay: Potency index, ratio of etoposide IC50 to compound IC50 for antiproliferative activity against human K562/VCR cells; format: functional
[19] = tested on: K562/VCR; assay: Potency index, ratio of vincristine IC50 to compound IC50 for antiproliferative activity against human K562/VCR cells; format: functional
[20] = tested on: K562; assay: Antiproliferative activity against human K562 cells incubated for 72 hrs by CCK8 method; format: functional, cell-based; details: K562, 72 h
[21] = tested on: K562/Adr; assay: Antiproliferative activity against human K562/ADR cells incubated for 72 hrs by CCK8 method; format: functional, cell-based

Sequence of Prostaglandin G/H synthase 2 (Mus musculus, UniProt Q05769, V509I) (Q05769 18-604 V509I limits assumed): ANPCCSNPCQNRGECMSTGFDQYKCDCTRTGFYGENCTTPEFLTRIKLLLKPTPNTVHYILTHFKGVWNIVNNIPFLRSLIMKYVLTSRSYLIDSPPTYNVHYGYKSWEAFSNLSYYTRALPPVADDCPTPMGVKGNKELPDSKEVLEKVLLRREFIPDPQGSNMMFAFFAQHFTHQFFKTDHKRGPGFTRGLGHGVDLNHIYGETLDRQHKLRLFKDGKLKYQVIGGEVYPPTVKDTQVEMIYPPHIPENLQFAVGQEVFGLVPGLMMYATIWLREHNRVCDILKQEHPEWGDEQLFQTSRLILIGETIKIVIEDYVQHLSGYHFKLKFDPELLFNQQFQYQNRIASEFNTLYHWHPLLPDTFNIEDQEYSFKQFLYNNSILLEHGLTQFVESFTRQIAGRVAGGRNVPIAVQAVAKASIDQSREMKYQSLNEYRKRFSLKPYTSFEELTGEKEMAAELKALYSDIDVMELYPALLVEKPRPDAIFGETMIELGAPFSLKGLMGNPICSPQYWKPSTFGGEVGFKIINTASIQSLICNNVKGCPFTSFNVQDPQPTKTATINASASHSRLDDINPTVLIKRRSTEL
Sequence of Prostaglandin G/H synthase 2 (Mus musculus, UniProt Q05769) (Q05769 whole entry): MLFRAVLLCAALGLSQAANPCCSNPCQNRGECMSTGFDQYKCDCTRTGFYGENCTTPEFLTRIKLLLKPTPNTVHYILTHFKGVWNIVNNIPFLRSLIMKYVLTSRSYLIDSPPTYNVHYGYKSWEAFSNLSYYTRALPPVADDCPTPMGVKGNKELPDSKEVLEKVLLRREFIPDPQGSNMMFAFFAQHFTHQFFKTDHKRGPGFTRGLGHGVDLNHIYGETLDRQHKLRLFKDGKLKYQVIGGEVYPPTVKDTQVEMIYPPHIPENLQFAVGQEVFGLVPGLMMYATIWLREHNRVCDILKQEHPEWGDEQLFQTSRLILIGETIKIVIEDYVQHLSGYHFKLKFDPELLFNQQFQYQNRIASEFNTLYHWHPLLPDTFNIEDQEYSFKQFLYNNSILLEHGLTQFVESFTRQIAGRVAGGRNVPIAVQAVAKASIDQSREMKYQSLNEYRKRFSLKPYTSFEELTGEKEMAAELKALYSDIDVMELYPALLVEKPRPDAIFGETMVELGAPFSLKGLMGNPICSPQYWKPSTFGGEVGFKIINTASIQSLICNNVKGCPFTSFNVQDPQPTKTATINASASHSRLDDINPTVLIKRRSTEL
Sequence of Prostaglandin G/H synthase 2 (Mus musculus, UniProt Q05769, S516A) (Q05769 18-604 S516A limits assumed): as the sequence (Q05769 18-604 V509I limits assumed) above, with I492V, S499A counted along it
Sequence of Prostaglandin G/H synthase 2 (Mus musculus, UniProt Q05769, R106Q) (Q05769 18-604 R106Q limits assumed): as the sequence (Q05769 18-604 V509I limits assumed) above, with R89Q, I492V counted along it

In the case of `COc1ccc2c(c1)c(CC(=O)NCCCCNC(=O)CCC(=O)O[C@H]1c3cc4c(cc3[C@@H](c3cc(OC)c(OC)c(OC)c3)[C@H]3C(=O)OC[C@@H]31)OCO4)c(C)n2C(=O)c1ccc(Cl)cc1`, the IC50 [1] is reported as < 30 nM, the IC50 [2] is reported as < 30 nM and the IC50 [3] is reported as 90 nM. For the same molecule, the IC50 [4] was < 30 nM, the IC50 [5] was < 30 nM and the IC50 [6] was 90 nM. The IC50 [7] was 90 nM, the IC50 [8] was < 30 nM and the IC50 [9] was 90 nM. For the same molecule, the IC50 [10] was < 30 nM, the inhibition in vivo at 2 mg/kg [11] was 50% and the IC50 [12] was < 30 nM.
In the case of `COc1cc(/C=C/c2ccc(OCC(=O)O[C@H]3c4cc5c(cc4[C@@H](c4cc(OC)c(OC)c(OC)c4)[C@H]4C(=O)OC[C@@H]43)OCO5)cc2)cc(OC)c1`, the IC50 [13] is reported as 347 nM, the IC50 [14] is reported as 81 nM and the “Ratio IC50” value [15] is reported as 3.6. For the same molecule, the “Ratio IC50” value [16] was 34.2.
In the case of `COc1cc([C@@H]2c3cc4c(cc3[C@H](OC(=O)c3nn(Cc5cc(Cl)cc(Cl)c5)c5ccccc35)[C@H]3COC(=O)[C@H]23)OCO4)cc(OC)c1OC`, the IC50 [17] is reported as 578 nM, the “Ratio IC50” value [18] is reported as 8.1 and the “Ratio IC50” value [19] is reported as 8.1. The IC50 [20] was 423 nM and the IC50 [21] was 560 nM.
